# Experimental data from US20110217293A1, “Uses of morelloflavone” (priority 2008, published 2011).
# Entries after “also recorded” stand apart in the source; their conditions may differ.
# Experiments:
# ERK = test: Western blot, phosphorylation of ERK; type: cell-based, mouse; details: low concentrations (0.1 & 1 mM)
# Description: To assess the phosphorlyation status of ERK, […] of whole cell lysates was loaded onto SDS-PAGE, and Western blot analysis was done using anti-p-ERK (Santa Cruz; E-4; sc-7383) and anti-ERK (Santa Cruz; K-23; sc-94) antibodies. To detect active RhoA, Rac1 and Cdc42, generated GST-tagged RhoA binding domain of Rhotekin protein (GST-Rhotekin-RBD) and GST-tagged p21-binding domain of p21-activated kinase 1 (PAK1)(GST-PAK1-PBD) were first generated. Briefly, E. coli BL21 cells transformed with pGEX4T-PAK1-PBD or pGEX4T-Rh,otekin-RBD were grown at 37° C. and expression of recombinant protein was induced by addition of 0.1 mM IPTG for 3 hours. Cells were resuspended in lysis buffer (50 mM Tris-HCl, pH 8.0, 10% glycerol, 20% sucrose, 2 mM DTT, 1 mg/ml leupeptin, 1 mg/ml pepstatin, and 1 mg/ml aprotinin), sonicated, and centrifuged at 4° C. for 30 min at 45,000 g. The supernatant was incubated with glutathione sepharose 4B beads (GE-Amersham, Piscataway, N.J.) for 1 hour at 4° C., and then washed 3 times in lysis buffer. Using these GST-proteins, GTPase activation assays were performed as described.
# apoE−/− mice = test: Mouse carotid artery injury assay (morphometry, TUNEL, Ki-67, p-ERK staining); type: in vivo; details: for External elastic lamina area / Internal elastic lamina area / Luminal area / Medial area / Neointimal area: 0.15% diet
# Description: The carotid artery injury assay was performed as described by Kuhel (16). Male apoE−/− mice were obtained from Jackson Laboratory (Bar Harbor, Me.) and maintained on a 12 hour light/dark cycle. All animal experimentation protocols were performed under institutional guidelines of animal welfare, in accordance with NIH guidelines. Mice were fed either normal rodent chow diet (5001, LabDiet) (n=10) or normal chow diet containing 0.15% morelloflavone (w/w) (n=9). This diet corresponded to 200 mg/kg morelloflavone if a 30 gm mouse consumes 4 grams of chow. Mice were placed on these diets for 7 days before they underwent carotid artery denudation by the insertion of an epoxy resin (Epon) probe as described (16).
# Briefly, the entire length of the left carotid artery was exposed and the distal bifurcation of the carotid artery was looped proximally and ligated distally with a 7-0 suture. A transverse arteriotomy was made between the 7-0 silk sutures and the resin probe was inserted, advanced toward the aortic arch, and withdrawn 5 times. The probe was then removed, the proximal 7-0 suture was ligated, a 6-0 suture was secured, and the incision was closed with 5-0 sterile surgical gut. After surgery, mice were maintained on these diets 9 for 14 days before they were euthanized. After blood was sampled, the arteries of these mice were perfusion-fixed with 10% buffered formalin (pH 7.0) solution at a constant pressure of 100 mm Hg. The entire neck from each mouse was dissected, fixed further in 10% buffered formalin, decalcified, and then embedded in paraffin. Identical whole neck cross sections of […] were made from the distal side of the neck beginning at the point of the distal 7-0 ligature. Whole neck sections were used to evaluate both the injured and the uninjured control vessels on the same section. For each mouse, the 4 levels of serial sections were taken at […] intervals. These sections were stained by Verhoeff-van Gieson (VVG) staining and subjected to morphometric analyses. Images were digitized and captured using a Sony video connected to a personal computer.
# Measurements were performed at a magnification of 200 using a Scion Image analysis computer program (Frederick, Md.). Data were obtained from the first 2 levels where endothelial denudation occurred. For each artery, the luminal area, area inside the internal elastic lamina (IELA), and the area encircled by external elastic lamina-IELA were measured. The intimal area (IA) was calculated as the IELA minus luminal area. For the determination of serum morelloflavone levels, animal sera were first digested by proteinase K in the presence of 0.01% SDS. Morelloflavone was then extracted into ethyl acetate and lyophilized.
# For the analyses of intimal cell proliferation, apopotosis and ERK activation, Ki-67, Terminal deoxynucleotidyl transferase (TdT)-deoxyuridine nick-end labeling (TUNEL), and p-ERK staining, respectively, were performed. Ki-67 was detected using a monoclonal rabbit antibody (Clone TEC-3, DAKO North America, Inc., Carpinteria, Calif.) as described (8-9). Terminal deoxynucleotidyl transferase (TdT)-deoxyuridine nick-end labeling (TUNEL) staining (10) was performed using a FragEL™ DNA fragmentation detection kit (Oncogene Research Products, Boston, Mass.) according to the manufacturer's instructions. The Ki-67 and apoptotic indices, defined as the number of cells with DAB-positive nuclei divided by the total number of cells counted and expressed as a percentage, were then calculated. All cells within the intima were counted. Values are expressed as means±SD. Comparisons of parameters between two groups were made with Student's t test. When appropriate, ANOVA was performed to compare multiple groups. A value of P<0.05 was considered statistically significant.
# Analysis of lipids = type: in vivo, mouse; details: Ldlr−/−Apobec1−/− mice, morelloflavone diet 8 months
# Description: Plasma levels of triglycerides, total cholesterol, phospholipids, and non-esterified fatty acids of control and morelloflavone-treated animals were measured and using commercially available kits according to manufacturer's instruction (Randox Laboratories, Crumlin, UK; Thermo Fisher Scientific, Waltham, Mass.; Wako Chemicals, Richmond, Va.).
# sPLA2-IB = sPLA2-IB (Homo sapiens, UniProt P04054); test: sPLA2 enzyme activity assay, Group IB; type: biochemical; details: recombinant human sPLA2-IB, data not shown
# Chain of sPLA2-IB (P04054 23-148): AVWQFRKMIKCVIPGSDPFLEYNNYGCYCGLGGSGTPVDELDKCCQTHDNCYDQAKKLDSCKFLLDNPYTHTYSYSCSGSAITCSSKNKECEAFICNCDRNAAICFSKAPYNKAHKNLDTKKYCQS
# Description: (§1) Recombinant human sPLA2 isoforms, Group IB, Group IIA, Group V, and Lp-PLA2 were obtained from R&D Systems and Cayman Chemical Co. sPLA2 enzyme activities in the presence of various concentrations of morelloflavone or other inhibitors were determined using a commercially available assay system according to the manufacturer's instructions (Cayman Chemical Co.). Thioetheramide-1-palmitylthio-2-palmitoylamido-1,2-dideoxy-sn-glycero-3-phosphorylcholine (T-PC) and methyl arachidonyl fluorophosphonate (MAFP) were used as inhibitors of sPLA2 (IB, IIA, and V) and Lp-PLA2, respectively, per manufacturers' instructions.
# sPLA2-V = biological target: T1, sPLA2-V (Homo sapiens, UniProt P39877); test: sPLA2 enzyme activity assay, Group V; type: biochemical; details: recombinant human sPLA2-V, data not shown
# T1 sequence (P39877 21-138): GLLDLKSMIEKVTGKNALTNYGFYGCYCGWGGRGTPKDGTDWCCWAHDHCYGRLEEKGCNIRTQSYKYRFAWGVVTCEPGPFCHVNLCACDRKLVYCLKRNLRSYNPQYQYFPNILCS
# Description: as §1
smiles,measurement,setting,value
"O=C1c2c(O)cc(O)cc2O[C@H](c2ccc(O)cc2)[C@H]1c1c(O)cc(O)c2c(=O)cc(-c3ccc(O)c(O)c3)oc12 [morelloflavone, 5,7, 4′, 5″, 7″, 3″, 4″-heptahydroxy-[3,8″]-flavonylflavanone]",phosphorylation of ERK,ERK,inhibited; also recorded: robustly decreased phosphorylation; also recorded: blocks
same,External elastic lamina area,apoE−/− mice; Injured carotid artery,103000 ± 14300 µm²
same,Internal elastic lamina area,apoE−/− mice; Injured carotid artery,70000 ± 11100 µm²
same,Luminal area,apoE−/− mice; Injured carotid artery,62100 ± 10700 µm²
same,Medial area,apoE−/− mice; Injured carotid artery,39300 ± 15100 µm²
same,Neointimal area,apoE−/− mice; Injured carotid artery,7860 ± 4050 µm²
same,Neointimal area,"apoE−/− mice; Injured carotid artery, listed as Morelloflavone",7860 ± 4050 µm²
same,External elastic lamina area,apoE−/− mice; Uninjured carotid artery,93100 ± 9140 µm²
same,Internal elastic lamina area,apoE−/− mice; Uninjured carotid artery,62900 ± 5900 µm²
same,Luminal area,apoE−/− mice; Uninjured carotid artery,62300 ± 5900 µm²
same,Medial area,apoE−/− mice; Uninjured carotid artery,30200 ± 14400 µm²
same,Ki-67 indices,apoE−/− mice; neointima of injured carotid artery,0.17±0.41%
same,TUNEL indices,"apoE−/− mice; neointima of injured carotid artery, index expressed as a percentage",16.0±4.6
same,sections with nuclear p-ERK signals in the neointima,apoE−/− mice; one out of 8 sections of treated animals,12.5%
same,effect on ERK activation (p-ERK positivity) in the neointima,apoE−/− mice; oral morelloflavone,decreases ERK activation; also recorded: reduced p-ERK positivity; also recorded: less ERK activation
same,effect on injury-induced neointimal formation (restenosis),"apoE−/− mice; oral, 0.15% w/w in chow, 7 days before and 14 days after injury, apoE−/− mice",significantly less neointimal formation; also recorded: reduced neointimal formation; also recorded: significantly blocked injury-induced neointimal formation; also recorded: blocks restenosis
same,change in serum phospholipid concentration,Analysis of lipids,no changes
same,non-esterified fatty acid levels,Analysis of lipids,0.89±0.13
same,serum cholesterol,Analysis of lipids,507.2 ± 95.8 mg/dL
same,serum triglycerides,Analysis of lipids,179.9±28.0
same,IC50,sPLA2-IB,> 10 µM
same,IC50,sPLA2-V,> 10 µM
